From ChEMBL document CHEMBL1130945, “Rapid optimization of an ICE inhibitor synthesis using multiple reaction conditions in a parallel array” (Bioorg Med Chem Lett, 1998)

How the values were obtained:
Caspase-1 [1] = target: T1, Caspase-1 (Homo sapiens, UniProt P29466, D381E); test: Compound was tested for inhibitory activity against N-His (D381E) Interleukin -1 beta converting enzyme (combinatorially prepared compound)
Caspase-1 [2] = target: T1, Caspase-1; test: Compound was tested for binding affinity against N-His (D381E) Interleukin -1 beta converting enzyme
Caspase-1 [3] = target: T1, Caspase-1; test: Compound was tested for inhibitory activity against N-His (D381E) Interleukin -1 beta converting enzyme (resynthesized compound)

T1 sequence (P29466 120-297 limits assumed): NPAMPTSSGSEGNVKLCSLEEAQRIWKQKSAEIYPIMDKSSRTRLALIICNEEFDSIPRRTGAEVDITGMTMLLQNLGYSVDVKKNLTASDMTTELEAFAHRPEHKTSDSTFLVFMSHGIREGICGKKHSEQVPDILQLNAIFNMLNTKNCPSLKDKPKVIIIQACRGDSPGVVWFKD
T1 sequence (P29466 317-404 D381E limits assumed): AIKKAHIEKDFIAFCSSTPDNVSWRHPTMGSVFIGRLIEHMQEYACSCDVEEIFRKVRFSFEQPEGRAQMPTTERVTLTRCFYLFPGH

IC50 (Caspase-1 [1]) [nM]	Ki (Caspase-1 [2]) [nM]	IC50 (Caspase-1 [3]) [nM]	Compound
936			O=C(O)C[C@H](NC(=O)OCc1ccccc1)C(=O)COC(=O)Cc1c(Cl)ccc(Cl)c1Cl
5	113	7	CC(=O)NC(C(=O)N[C@@H](CC(=O)O)C(=O)COC(=O)Cc1c(Cl)ccc(Cl)c1Cl)C(C)C (stereo partly specified)
12000	4500	35000	O=C(O)C[C@H](NC(=O)OCc1ccccc1)C(=O)COC(=O)CCc1ccccc1
5	82	8	CC(=O)NC(C(=O)N[C@@H](CC(=O)O)C(=O)COC(=O)Cc1c(Cl)cccc1Cl)C(C)C (stereo partly specified)
742			O=C(O)C[C@H](NC(=O)OCc1ccccc1)C(=O)COC(=O)Cc1c(Cl)cccc1Cl
